Laboratory results from patent US20100184675A1, “USE OF GLUCAGON (1-29) ALONE OR IN COMBINATION WITH NEUROPEPTIDE W30 AS A THERAPEUTIC AGENT” (priority 2007, published 2010).
Ends that are not written are not given here.

Test system: drug-resistant Mycobacterium tuberculosis
Test: Mycobacterium tuberculosis assay
Format: cell-based
Conditions: 10 micrograms per ml; seven days; strain resistant to PAS, streptomycin, INH; combination 0.95:1.05 mole and all other molar ratios from 1:100 to 100:1

Trp-Tyr-Lys-His-Val-Ala-Ser-Pro-Arg-Tyr-His-Thr-Val-Gly-Arg-Ala-Ala-Gly-Leu-Leu-Met-Gly-Leu-Arg-Arg-Ser-Pro-Tyr-Leu-Trp-OH (WYKHVASPRYHTVGRAAGLLMGLRRSPYLW-OH) [Peptide 2, Neuropeptide W-30, commercially available known peptide]
inhibition of the growth of Mycobacterium tuberculosis: 100%
